What is called EC50 is the midpoint of the concentration-response curve.

The record followed here is article PMC7053711, “A G protein–coupled receptor mediates neuropeptide-induced oocyte maturation in the jellyfish Clytia” (PLoS Biology, 2020).

The subject of test [1] is Clytia MIHR. In words: GPCR deorphanization assay, luminescence response to peptides at 1 μM (CHO-K1 cells, Gα-16, GFP-apoaequorin). The settings on record: peptide 1E-6M, normalised to Platynereis FLamide receptor + 1 μM AKYFL-NH2, n = 3. It is filed as cell-based, Clytia hemisphaerica. From the text: We used a cell culture–based GPCR deorphanization assay to identify the MIH receptor from our candidate shortlist. cDNAs for each candidate were transfected into Chinese Hamster ovary K1 (CHO-K1) cells along with the promiscuous Gα protein Gα-16, and an aequorin-GFP luminescence reporter that measures Ca^2+ mobilization downstream of this heterologous Gα protein [27, 28]. We first screened the 16 candidate Clytia GPCRs against a mixture of 33 synthetic amidated peptides (including MIHs) predicted to be generated from previously identified putative Clytia neuropeptide precursors and one additional one identified from transcriptome data. Given our imperfect knowledge of pro-peptide processing in cnidarians, some of the synthetic peptides may not correspond to endogenous peptides. Only one of the 16 GPCRs was activated by this peptide mixture. This receptor responded well to all 4 synthetic Clytia MIH tetrapeptides, as well as to related Cladonema MIH peptides that can also activate Clytia oocyte maturation, but not to other Clytia peptide mixtures or poorly active MIH penta-/tripeptides. We termed this Clytia GPCR the Maturation Inducing Hormone Receptor (MIHR). The activity of individual peptides at 1 μM to stimulate the MIHR closely matched their in vivo ability to induce oocyte maturation (Fig 1B).
(§1) Cell culture GPCR ligand response assays were performed as described. Briefly, CHO-K1 cells were cultured in Ham’s F12 Nut Mix medium (Thermo Fisher Scientific) with 10% foetal bovine serum. Cells were seeded in 96-well plates at approximately 10,000 cells/well and transfected the following day with pcDNA3.1(+) plasmids encoding each of the 16 candidate Clytia GPCRs (S2 Text), the promiscuous Gα-16 protein [65], and a reporter construct GFP-apoaequorin [66] (60 ng each) using the transfection reagent TurboFect (Thermo Fisher Scientific). After 2 days of expression, the medium was removed and replaced with Hank’s balanced salt solution (HBSS) supplemented with 1.8 mM Ca2+, 10 mM glucose, and […] coelenterazine h (Promega, Madison, WI). After incubation at 37 °C for 2 hours, cells were tested by adding synthetic peptides (GenScript) in HBSS supplemented with 1.8 mM Ca2^+ and 10 mM glucose. A list of all synthetic peptides used is provided in S2 Table. Luminescence was recorded for 45 seconds in a plate reader (BioTek Synergy Mx or Synergy H4; BioTek, Winooski, VT). Data were integrated over the 45-second measurement period and recorded as technical triplicates in each case. Data were normalized using the response of Platynereis FLamide receptor to 1 μM AKYFL-NH2 [28]. Dose–response curves were obtained using concentrations between 0.01 nM and 100 μM for each peptide. Data for dose–response curves were recorded in triplicate for each concentration and the experiment was repeated independently 3 times. Dose–response curves were fitted with a four-parameter curve using Prism 6 (GraphPad, La Jolla, CA) and were normalized to the calculated upper plateau values (100% activation).
Supplementary file pbio.3000614.s011.xlsx: S1 Data Numerical data corresponding to Fig 1B. Raw luminescence values obtained in triplicate for each of the neuropeptide combinations tested against the MIHR in the deorphanization assay are provided. In the right-hand table, the raw luminescence values obtained in quadruple for the positive and negative controls are provided. In the lower table, means and standard errors of the mean of the luminescence values obtained for each neuropeptide combination and controls are also shown, as well as the values normalized to the positive control, which were used to prepare the graph shown in Fig 1B. MIHR, MIH receptor. (XLSX) Click here for additional data file.

Test [2] concerns Clytia MIHR. Put plainly: Dose–response curves of Clytia MIHR, luminescence (CHO-K1 cells, Gα-16, GFP-apoaequorin). In kind it is cell-based, Clytia hemisphaerica. The arrangement: key to Span (best-fit value) / Bottom (best-fit value): % activation, normalized to fitted upper plateau (100%). The settings on record: for EC50: four-parameter fit, variable slope, triplicate; for HillSlope / LogEC50: best-fit value; for Bottom / Span / Top: best-fit value (luminescence). How it is done:
The Clytia MIH amidated peptides are produced from two precursor genes Che-pp4 (generating multiple copies of WPRAamide, WPRYamide, and WPRPamide) and Che-pp1 (multiple copies of WPRPamide and RPRGamide).
as §1
Supplementary file pbio.3000614.s012.xlsx: S2 Data Numerical data corresponding to Fig 1C. The first three tabs show statistical values obtained using Prism 6 software (GraphPad, La Jolla, CA) from the raw luminescence values for 3 independent dose–response experiments. The raw luminescence values are shown, as well as the values normalized with respect to the maximum. […] MIH, maturation-inducing hormone. (XLSX) Click here for additional data file.

Test [3] relates to fully grown oocytes isolated from MIHR mutant (n5-23) gonads. In words: Oocyte maturation assay, MIHR mutant isolated oocytes (GVBD). In kind it is cell-based, Clytia hemisphaerica. As to conditions: for Oocyte maturation (number) / Percentage of Oocytes maturing: 4mM BrcAMP, MIH R K.O. From the text:
(§2) Fig 4 Oocyte maturation failure in MIHR mutant medusae. Oocyte maturation assays performed using isolated gonads (A, B) or isolated oocytes (C) from MIHR mutant jellyfish compared to WT. In A and C, bar heights represent mean percentages of 3 independent experiments and error bars show standard deviations. Total gonad or oocyte numbers for each treatment are indicated in gray. (A) Spawning response of isolated gonads from WT and n5-23 female medusae. Three treatments were compared as indicated above each panel: Light: light stimulation after incubation in the dark; MIH: treatment of light-maintained gonads with 100 nM WPRPamide; cAMP: treatment of light-maintained gonads with 4 mM Br-cAMP. […] Full datasets from three independent experiments are available in S3 Data. (B) Light microscope images illustrating gonads from an equivalent experiment performed with n5-13 female MIHR mutant medusae 120 minutes after the indicated treatments. Scale bar: 500 μm. […] Full datasets from 3 independent experiments are available in S3 Data. Br-cAMP, bromoadenosine 3′,5′-cyclic monophosphate; cAMP, cyclic adenosine monophosphate; KO, knockout; MIH, maturation-inducing hormone; MIHR, MIH receptor; WT, wild-type.
(§3) Fully grown oocytes were isolated manually from dissected gonads of wild-type and MIHR KO mutant jellyfish prepared as above. Maturation assays were performed in wells of 96-well plates or small plastic petri dishes lined with 2% agarose in MFSW. Spontaneous maturation occurs at a low frequency in control oocytes. To test MIH-induced maturation, 10 μL WPRPamide from 1 μM solution in MFSW was added to a final concentration of 100 nM. In some experiments, Br-cAMP from a 20 mM stock in H2O was used at a final concentration of 4 mM. GVBD was scored at 30 minutes, every 5 minutes, depending on experiments.
(§4) Supplementary file pbio.3000614.s013.xlsx: S3 Data Numerical data corresponding to Fig 4A and 4C. The first tab collects all the raw data from 3 independent gonad spawning assays. Information corresponding to the Fisher exact tests is also shown. […] The means and standard deviations were used to prepare the graph in Fig 4C. Information corresponding to the Fisher exact tests is also shown. (XLSX) Click here for additional data file.

Test [4] deals with wild-type (WT) isolated female gonads. Put plainly: Gonad spawning assay, wild-type isolated gonads. Also on record: species or system Clytia hemisphaerica. As to conditions: for Gonads spawning (number) / Percentage of spawning gonads: 4mM BrcAMP. The method, then:
(§5) We performed a series of oocyte maturation and spawning assays, comparing the responses of wild-type and MIHR mutant isolated gonads and oocytes to different stimuli (Fig 4).
(§6) Sexually mature MIHR mutant medusae from colonies n5-13 and n5-23 and wild-type medusae were cultured on the same day–night cycle. Individual gonads were dissected in the evening after afternoon spawning. To test the light response, one group of each was transferred to 100 μL MFSW in wells of 96-well plastic plates, covered overnight, and re-exposed to white light the following day. To test responses to MIH and cAMP, other groups of dissected gonads were cultured overnight in constant light, then transferred to 96-well plastic plates for two hours. MIH was added to wells as an equal volume of 200 nM WPRPamide (GenScript) stock in MFSW was added to give a final concentration of 100 nM. Alternatively, a stock of 20 mM bromo adenosine 3′,5′cyclic monophosphate (Br-cAMP–Fluka; Sigma Aldrich) in distilled water was added to give a final concentration of 4 mM. Gonads were washed after 5 minutes incubation in Br-cAMP. Oocyte maturation was scored after 30 minutes as germinal vesicle breakdown (GVBD), i.e., visible dissolution of the oocyte nuclear membrane upon entry into M phase, which in all cases was followed by spawning about 1 hour later.
as §4

Test [5] concerns MIHR mutant (n5-23, n5-13) isolated female gonads. Put plainly: Gonad spawning assay, MIHR mutant isolated gonads. The arrangement: species or system Clytia hemisphaerica. The settings on record: for Gonads spawning (number) / Percentage of spawning gonads: 4mM BrcAMP, MIH R K.O. The method, then:
as §5, §6, §4

Test [6] relates to fully grown oocytes isolated from WT gonads. In words: Oocyte maturation assay, wild-type isolated oocytes (GVBD). As to conditions: for Oocyte maturation (number) / Percentage of Oocytes maturing: 4mM BrcAMP, wild type. In kind it is cell-based, Clytia hemisphaerica.
Excerpt: as §2, §3, §4

The mark [7] stands for this setting: log(agonist) vs. response, variable slope (four parameters), fit of third dataset.
The mark [8] stands for this setting: BrcAMP, pooled n=92, Fisher exact test vs WT 0.215946, not significant at p < .01.
[9] abbreviates: wild type, replicate 1, total 12.
Setting [10] is: wild type, replicate 2, total 10.
Where [11] appears, read: wild type, replicate 3, total 10.
Setting [12] is: BrcAMP, pooled n=32, Fisher exact test vs MIHR KO not significant at p < .01.
[13] abbreviates: BrcAMP, pooled n=29, Fisher exact test vs WT not significant at p < .01.
[14] abbreviates: BrcAMP, pooled n=59, Fisher exact test vs MIHR KO 0.215946, not significant at p < .01.

Peptide text beside a SMILES is read from it.

For `C[C@H](NC(=O)[C@H](CCCNC(=N)N)NC(=O)[C@@H]1CCCN1C(=O)[C@@H](N)Cc1c[nH]c2ccccc12)C(N)=O` [WPRAa] (H-WPRA-NH2; N-terminus assumed), in the test on Clytia MIHR [1], the “Normalised response (to positive control), mean” value (“Normalised response” below) is recorded as 0.2465. Further, the concentration giving a half-maximal response (EC50) in the test with Clytia MIHR [2] (dataset/experiment 1) worked out at 140 nM. Besides, in the test on Clytia MIHR [2] (dataset/experiment 2), the concentration giving a half-maximal response (EC50) worked out at 940 nM. In the test with Clytia MIHR [2] (first dataset), the HillSlope amounted to 1.505, the LogEC50 is recorded as -6.854, the Bottom amounted to 1277 and the Span is reported as 50384. Besides, the Top with Clytia MIHR [2] (first dataset) is given as 51660. Moreover, in the test on Clytia MIHR [2] (setting [7]), the “Bottom (best-fit value)” value stood at 12.04, the “HillSlope (best-fit value)” value is recorded as 1.48, the “LogEC50 (best-fit value)” value was -6.272 and the “Span (best-fit value)” value was determined as 87.97. Also, in the test with Clytia MIHR [2] (second dataset), the HillSlope stood at 1.06, the LogEC50 was -6.027, the Bottom stood at 2165 and the Span is 21649. The Top in the test with Clytia MIHR [2] (second dataset) was 23814.

For the compound `Nc1ncnc2c1nc(Br)n2[C@@H]1O[C@@H]2COP(=O)(O)O[C@H]2[C@H]1O` [BrcAMP], the “Oocyte maturation (number)” value in test [3] (replicate 1, total 31) came out at 30; in test [3] (replicate 2, total 14) it was 12; in test [3] (replicate 3, total 47.00), 41; in test [6] (replicate 1, total 15) it was 15; in test [6] (replicate 2, total 26), 21; in test [6] (replicate 3, total 18.00), 13. Also, the “Percentage of Oocytes maturing” value turned out to be 96.77 in test [3] (replicate 1, total 31); 85.71 in test [3] (replicate 2, total 14); 87.23 in test [3] (replicate 3, total 47.00); 100.00 in test [6] (replicate 1, total 15); 80.77 in test [6] (replicate 2, total 26); 72.22 in test [6] (replicate 3, total 18.00). In addition, the “% oocytes maturing, pooled” value in test [3] (BrcAMP, MIHR KO, pooled n=92) is on record as 90.2174%; in test [6] (BrcAMP, WT, pooled n=59) it was 83.0508%. Besides, the “Maturing oocytes, MIHR KO YES” value in test [3] (setting [8]) came to 83. In addition, the “Non-maturing oocytes, MIHR KO NO” value in test [3] (setting [8]) is recorded as 9. The “Gonads spawning (number)” value in test [4] (setting [9]) was determined as 12; in test [4] (setting [10]) it was 10; in test [4] (setting [11]), 10; in test [5] (replicate 1, total 4), 4; in test [5] (replicate 2, total 18), 18; in test [5] (replicate 3, total 7), 7. Besides, the “Percentage of spawning gonads” value is listed as 100 in test [4] (setting [9]); 100 in test [4] (setting [10]); 100 in test [4] (setting [11]); 100 in test [5] (replicate 1, total 4); 100 in test [5] (replicate 2, total 18); 100 in test [5] (replicate 3, total 7). Besides, the “Non-spawning gonads, WT NO” value in test [4] (setting [12]) is 0. Besides, the “Spawning gonads, WT YES” value in test [4] (setting [12]) is reported as 32. Besides, the “Percentage of spawning gonads (summary)” value turned out to be 100 in test [4] (BrcAMP, wild type, summary of 3 replicates) and 100 in test [5] (BrcAMP, MIHR K.O., summary of 3 replicates). Moreover, in test [5] (setting [13]), the “Non-spawning gonads, MIHR KO NO” value is recorded as 0. Besides, in test [5] (setting [13]), the “Spawning gonads, MIHR KO YES” value turned out to be 29. In addition, the “Maturing oocytes, WT YES” value in test [6] (setting [14]) is recorded as 49. For the same compound, in test [6] (setting [14]), the “Non-maturing oocytes, WT NO” value was 10.

As for “RPRP-NH2 [RPRPa, Cladonema MIH tetrapeptide, RPRP-NH2]”, the “Normalised response” value in the test on Clytia MIHR [1] is given as 0.33.

AWPRP-NH2 [AWPRPa]: the “Normalised response” value with Clytia MIHR [1] is 0.02128.
